Laboratory results taken from patent publication US20230111310A1, “CARBOXYLIC ACID DERIVATIVE-SUBSTITUTED IMINO ARYL COMPOUND, PREPARATION METHOD THEREFOR, HERBICIDAL COMPOSITION AND USE THEREOF” (Qingdao Kingagroot Chemical Compound Co., Ltd., priority 2020, published 2023).

Assays:
Assay in all cases: Weeding effect in post-emergence stage
Type in all cases: in vivo
Echinochloa crusgalli = settings: for Weeding effect in post-emergence stage, Echinochloa crusgalli (level): fresh weight control rate level; for Weeding effect in post-emergence stage, Echinochloa crusgalli: level of fresh weight growth control rate
Excerpt: (§1) The activity level criteria for plant damage (i.e., growth control rate) are as follows:
(§2) Monocotyledonous and dicotyledonous weed seeds (Descurainia sophia, Capsella bursa-pastoris, Abutilon theophrasti, Galium aparine, Stellaria media, Lithospermum arvense, rorippa indica, Alopecurus aequalis, Alopecurus japonicus, Eleusine indica, Beckmannia syzigachne, Sclerochloa dura, Conyza Canadensis, Phleum paniculatum, Veronica didyma Tenore, Bromus japonicus, Aegilops tauschii, Phalaris arundinacea, Amaranthus retroflexus, Chenopodiaceae, Commelina communis, Sonchus arvensis, Convolvulus arvensis, Cirsium setosum, Bidens tripartita L., Solanum nigrum, Acalypha australis, Digitaria sanguinalis, Echinochloa crusgalli, Setaria viridis, Setaria glauca, Leptochloa chinensis, Monochoria vaginalis, Sagittaria trifolia, Scirpus juncoides, Cyperus rotundus, Cyperus iria, Cyperus difformis, Fimbristylis, Portulaca oleracea, Xanthium sibiricum, Pharbitis nil, etc.) and major crop seeds (wheat, corn, rice, soybean, cotton, oilseed rape, millet, sorghum, potato, sesame, ricinus, etc.) were placed in plastic pots filled with soil, then covered with 0.5-2 cm of soil, allowed to grow in a good greenhouse environment. After 2 weeks of sowing, the test plants were treated in the 2-3 leaf stage. The tested compounds of the present invention were respectively dissolved in acetone, then added with Tween 80 and 1.5 liter/ha of emulsifiable concentrate of methyl oleate as synergist, diluted with a certain amount of water to obtain a solution with a certain concentration, and sprayed with a spray tower onto the plants. After the application, the plants were cultured for 3 weeks in the greenhouse, and then the experimental results of the weeding were counted. The doses of the used compounds were 500, 250, 125, 60, 30, 15, 7.5 g/ha, and the averages were obtained by repeating for three times.

Abutilon theophrasti = settings: for Weeding effect in post-emergence stage, Abutilon theophrasti (level): fresh weight control rate level; for Weeding effect in post-emergence stage, Abutilon theophrasti: level of fresh weight growth control rate
Excerpt: as §1
as §2, with “The doses of the used compounds were 500, 250, 125, 60, 30, 15, 7.5 g/ha, and the averages were obtained by repeating for three times.” left out

Setaria viridis = settings: for Weeding effect in post-emergence stage, Setaria viridis (level): fresh weight control rate level; for Weeding effect in post-emergence stage, Setaria viridis: level of fresh weight growth control rate
Excerpt: as §1
as §2, with “The doses of the used compounds were 500, 250, 125, 60, 30, 15, 7.5 g/ha, and the averages were obtained by repeating for three times.” left out

Alopecurus japonicus = settings: for Weeding effect in post-emergence stage, Alopecurus japonicus (level): fresh weight control rate level; for Weeding effect in post-emergence stage, Alopecurus japonicus: level of fresh weight growth control rate
Excerpt: as §1
as §2, with “The doses of the used compounds were 500, 250, 125, 60, 30, 15, 7.5 g/ha, and the averages were obtained by repeating for three times.” left out

Eleusine indica = settings: for Weeding effect in post-emergence stage, Eleusine indica (level): fresh weight control rate level; for Weeding effect in post-emergence stage, Eleusine indica: level of fresh weight growth control rate
Excerpt: as §1
as §2, with “The doses of the used compounds were 500, 250, 125, 60, 30, 15, 7.5 g/ha, and the averages were obtained by repeating for three times.” left out

Digitaria sanguinalis = settings: for Weeding effect in post-emergence stage, Digitaria sanguinalis (level): fresh weight control rate level; for Weeding effect in post-emergence stage, Digitaria sanguinalis: level of fresh weight growth control rate
Excerpt: as §1
as §2, with “The doses of the used compounds were 500, 250, 125, 60, 30, 15, 7.5 g/ha, and the averages were obtained by repeating for three times.” left out

Structure (SMILES): COC(=O)[C@@H](C)O/N=C/c1cc(-n2c(=S)cc(C(F)(F)F)n(C)c2=S)c(F)cc1Cl [351(R)]
- Weeding effect in post-emergence stage, Echinochloa crusgalli (level) (Echinochloa crusgalli; Dose 60 g/ha): 5 (Level 5: growth control rate is above 85%)
- Weeding effect in post-emergence stage, Abutilon theophrasti (level) (Abutilon theophrasti; Dose 60 g/ha): 5 (Level 5: growth control rate is above 85%)
- Weeding effect in post-emergence stage, Setaria viridis (level) (Setaria viridis; Dose 60 g/ha): 5 (Level 5: growth control rate is above 85%)
- Weeding effect in post-emergence stage, Alopecurus japonicus (level) (Alopecurus japonicus; Dose 60 g/ha): 5 (Level 5: growth control rate is above 85%)
- Weeding effect in post-emergence stage, Eleusine indica (level) (Eleusine indica; Dose 60 g/ha): 5 (Level 5: growth control rate is above 85%)
- Weeding effect in post-emergence stage, Digitaria sanguinalis (level) (Digitaria sanguinalis; Dose 60 g/ha): 5 (Level 5: growth control rate is above 85%)

Structure (SMILES): CC(C)=NOC(=O)[C@@H](C)O/N=C/c1cc(-n2c(=O)n(C)c(=S)n(C)c2=O)c(F)cc1Cl [20(R)]
- Weeding effect in post-emergence stage, Echinochloa crusgalli (Echinochloa crusgalli; Dose 15 g/ha): 5 (Level 5: growth control rate is above 85%)
- Weeding effect in post-emergence stage, Abutilon theophrasti (Abutilon theophrasti; Dose 15 g/ha): 5 (Level 5: growth control rate is above 85%)
- Weeding effect in post-emergence stage, Setaria viridis (Setaria viridis; Dose 15 g/ha): 5 (Level 5: growth control rate is above 85%)
- Weeding effect in post-emergence stage, Alopecurus japonicus (Alopecurus japonicus; Dose 15 g/ha): 5 (Level 5: growth control rate is above 85%)
- Weeding effect in post-emergence stage, Eleusine indica (Eleusine indica; Dose 15 g/ha): 5 (Level 5: growth control rate is above 85%)
- Weeding effect in post-emergence stage, Digitaria sanguinalis (Digitaria sanguinalis; Dose 15 g/ha): 5 (Level 5: growth control rate is above 85%)

Structure (SMILES): C[C@@H](O/N=C/c1cc(-n2c(=O)cc(C(F)(F)F)n(C)c2=O)c(F)cc1Cl)C(=O)O/N=C/c1ccccc1 [255(R)]
- Weeding effect in post-emergence stage, Echinochloa crusgalli (Echinochloa crusgalli; Dose 30 g/ha): 5 (Level 5: growth control rate is above 85%)
- Weeding effect in post-emergence stage, Abutilon theophrasti (Abutilon theophrasti; Dose 30 g/ha): 5 (Level 5: growth control rate is above 85%)
- Weeding effect in post-emergence stage, Setaria viridis (Setaria viridis; Dose 30 g/ha): 5 (Level 5: growth control rate is above 85%)
- Weeding effect in post-emergence stage, Alopecurus japonicus (Alopecurus japonicus; Dose 30 g/ha): 5 (Level 5: growth control rate is above 85%)
- Weeding effect in post-emergence stage, Eleusine indica (Eleusine indica; Dose 30 g/ha): 5 (Level 5: growth control rate is above 85%)
- Weeding effect in post-emergence stage, Digitaria sanguinalis (Digitaria sanguinalis; Dose 30 g/ha): 5 (Level 5: growth control rate is above 85%)

Structure (SMILES): CCOCCOC(=O)[C@@H](C)O/N=C/c1cc(-n2c(=O)cc(C(F)(F)F)n(C)c2=O)c(F)cc1Cl [231(R)]
- Weeding effect in post-emergence stage, Echinochloa crusgalli (Echinochloa crusgalli; Dose 15 g/ha): 5 (Level 5: growth control rate is above 85%)
- Weeding effect in post-emergence stage, Abutilon theophrasti (Abutilon theophrasti; Dose 15 g/ha): 5 (Level 5: growth control rate is above 85%)
- Weeding effect in post-emergence stage, Setaria viridis (Setaria viridis; Dose 15 g/ha): 5 (Level 5: growth control rate is above 85%)
- Weeding effect in post-emergence stage, Alopecurus japonicus (Alopecurus japonicus; Dose 15 g/ha): 5 (Level 5: growth control rate is above 85%)
- Weeding effect in post-emergence stage, Eleusine indica (Eleusine indica; Dose 15 g/ha): 5 (Level 5: growth control rate is above 85%)
- Weeding effect in post-emergence stage, Digitaria sanguinalis (Digitaria sanguinalis; Dose 15 g/ha): 5 (Level 5: growth control rate is above 85%)

Structure (SMILES): CC(O/N=C/c1cc(-n2c(=O)cc(C(F)(F)F)n(C)c2=O)c(F)cc1Cl)C(N)=O (stereo not drawn) [Compound 499]
- Weeding effect in post-emergence stage, Echinochloa crusgalli (level) (Echinochloa crusgalli; Dose 15 g/ha): 5 (Level 5: growth control rate is above 85%)
- Weeding effect in post-emergence stage, Abutilon theophrasti (level) (Abutilon theophrasti; Dose 15 g/ha): 5 (Level 5: growth control rate is above 85%)
- Weeding effect in post-emergence stage, Setaria viridis (level) (Setaria viridis; Dose 15 g/ha): 5 (Level 5: growth control rate is above 85%)
- Weeding effect in post-emergence stage, Alopecurus japonicus (level) (Alopecurus japonicus; Dose 15 g/ha): 5 (Level 5: growth control rate is above 85%)
- Weeding effect in post-emergence stage, Eleusine indica (level) (Eleusine indica; Dose 15 g/ha): 5 (Level 5: growth control rate is above 85%)
- Weeding effect in post-emergence stage, Digitaria sanguinalis (level) (Digitaria sanguinalis; Dose 15 g/ha): 5 (Level 5: growth control rate is above 85%)

Structure (SMILES): CC(O/N=C/c1cc(-n2c(=O)n(C)c(=S)n(C)c2=O)c(F)cc1Cl)C(=O)OCc1ccco1 (stereo not drawn) [Compound 26]
- Weeding effect in post-emergence stage, Echinochloa crusgalli (Echinochloa crusgalli; Dose 15 g/ha): 5 (Level 5: growth control rate is above 85%)
- Weeding effect in post-emergence stage, Abutilon theophrasti (Abutilon theophrasti; Dose 15 g/ha): 5 (Level 5: growth control rate is above 85%)
- Weeding effect in post-emergence stage, Setaria viridis (Setaria viridis; Dose 15 g/ha): 5 (Level 5: growth control rate is above 85%)
- Weeding effect in post-emergence stage, Alopecurus japonicus (Alopecurus japonicus; Dose 15 g/ha): 5 (Level 5: growth control rate is above 85%)
- Weeding effect in post-emergence stage, Eleusine indica (Eleusine indica; Dose 15 g/ha): 5 (Level 5: growth control rate is above 85%)
- Weeding effect in post-emergence stage, Digitaria sanguinalis (Digitaria sanguinalis; Dose 15 g/ha): 5 (Level 5: growth control rate is above 85%)

Structure (SMILES): Cc1cc(C)n(C(=O)[C@@H](C)O/N=C/c2cc(-n3c(=O)cc(C(F)(F)F)n(C)c3=O)c(F)cc2Cl)n1 [424(R)]
- Weeding effect in post-emergence stage, Echinochloa crusgalli (level) (Echinochloa crusgalli; Dose 30 g/ha): 5 (Level 5: growth control rate is above 85%)
- Weeding effect in post-emergence stage, Abutilon theophrasti (level) (Abutilon theophrasti; Dose 30 g/ha): 5 (Level 5: growth control rate is above 85%)
- Weeding effect in post-emergence stage, Setaria viridis (level) (Setaria viridis; Dose 30 g/ha): 5 (Level 5: growth control rate is above 85%)
- Weeding effect in post-emergence stage, Alopecurus japonicus (level) (Alopecurus japonicus; Dose 30 g/ha): 5 (Level 5: growth control rate is above 85%)
- Weeding effect in post-emergence stage, Eleusine indica (level) (Eleusine indica; Dose 30 g/ha): 5 (Level 5: growth control rate is above 85%)
- Weeding effect in post-emergence stage, Digitaria sanguinalis (level) (Digitaria sanguinalis; Dose 30 g/ha): 5 (Level 5: growth control rate is above 85%)

Structure (SMILES): CCOC(=O)/C(C)=N/OC(=O)C(C)O/N=C/c1cc(-n2c(=O)cc(C(F)(F)F)n(C)c2=O)c(F)cc1Cl (stereo not drawn) [Compound 254]
- Weeding effect in post-emergence stage, Echinochloa crusgalli (Echinochloa crusgalli; Dose 15 g/ha): 5 (Level 5: growth control rate is above 85%)
- Weeding effect in post-emergence stage, Abutilon theophrasti (Abutilon theophrasti; Dose 15 g/ha): 5 (Level 5: growth control rate is above 85%)
- Weeding effect in post-emergence stage, Setaria viridis (Setaria viridis; Dose 15 g/ha): 5 (Level 5: growth control rate is above 85%)
- Weeding effect in post-emergence stage, Alopecurus japonicus (Alopecurus japonicus; Dose 15 g/ha): 5 (Level 5: growth control rate is above 85%)
- Weeding effect in post-emergence stage, Eleusine indica (Eleusine indica; Dose 15 g/ha): 5 (Level 5: growth control rate is above 85%)
- Weeding effect in post-emergence stage, Digitaria sanguinalis (Digitaria sanguinalis; Dose 15 g/ha): 5 (Level 5: growth control rate is above 85%)

Structure (SMILES): CC(O/N=C/c1cc(-n2c(=O)cc(C(F)(F)F)n(C)c2=O)c(F)cc1Cl)C(=O)SCc1ccccc1 (stereo not drawn) [Compound 409]
- Weeding effect in post-emergence stage, Echinochloa crusgalli (level) (Echinochloa crusgalli; Dose 30 g/ha): 5 (Level 5: growth control rate is above 85%)
- Weeding effect in post-emergence stage, Abutilon theophrasti (level) (Abutilon theophrasti; Dose 30 g/ha): 5 (Level 5: growth control rate is above 85%)
- Weeding effect in post-emergence stage, Setaria viridis (level) (Setaria viridis; Dose 30 g/ha): 5 (Level 5: growth control rate is above 85%)
- Weeding effect in post-emergence stage, Alopecurus japonicus (level) (Alopecurus japonicus; Dose 30 g/ha): 5 (Level 5: growth control rate is above 85%)
- Weeding effect in post-emergence stage, Eleusine indica (level) (Eleusine indica; Dose 30 g/ha): 5 (Level 5: growth control rate is above 85%)
- Weeding effect in post-emergence stage, Digitaria sanguinalis (level) (Digitaria sanguinalis; Dose 30 g/ha): 5 (Level 5: growth control rate is above 85%)

Structure (SMILES): CCCOC(=O)OC(=O)C(C)O/N=C/c1cc(-n2c(=O)cc(C(F)(F)F)n(C)c2=O)c(F)cc1Cl (stereo not drawn) [Compound 236]
- Weeding effect in post-emergence stage, Echinochloa crusgalli (Echinochloa crusgalli; Dose 60 g/ha): 5 (Level 5: growth control rate is above 85%)
- Weeding effect in post-emergence stage, Abutilon theophrasti (Abutilon theophrasti; Dose 60 g/ha): 5 (Level 5: growth control rate is above 85%)
- Weeding effect in post-emergence stage, Setaria viridis (Setaria viridis; Dose 60 g/ha): 5 (Level 5: growth control rate is above 85%)
- Weeding effect in post-emergence stage, Alopecurus japonicus (Alopecurus japonicus; Dose 60 g/ha): 5 (Level 5: growth control rate is above 85%)
- Weeding effect in post-emergence stage, Eleusine indica (Eleusine indica; Dose 60 g/ha): 5 (Level 5: growth control rate is above 85%)
- Weeding effect in post-emergence stage, Digitaria sanguinalis (Digitaria sanguinalis; Dose 60 g/ha): 5 (Level 5: growth control rate is above 85%)
